# Source: US20240390316A1 (SHENZHEN TECHNOLOGY UNIVERSITY, priority 2022, published 2024)
# Structures can show the parent of a compound that is named as a salt.
# Experiments:
# CVB2 = conditions: Coxsackievirus B type 2; CPE in vitro
# Vero cytotoxicity test = type: cell-based; conditions: African green monkey; Vero cells; mean ± standard deviation of three groups of parallel tests
# Procedure: A cytotoxicity test of CVB1, CVB2 and CVB3 on Vero cells was carried out with three groups of parallel tests, respectively, and Table 1 was obtained.
# CVB1 [1] = conditions: Coxsackievirus B type 1; CPE in vitro
# Procedure: 72 hours later, the degree of a cytopathic effect was detected by an AlamarBlue fluorescent reagent, and an inhibition rate was calculated by using a formula.
# Coxsackievirus B = test: Inhibition rate at 25 μM in virus-infected Vero cells (AlamarBlue); type: cell-based; conditions: 72 hours, FIG. 3
# Procedure: (§1) Test 3: In vitro anti-CVB1, anti-CVB2, anti-CVB3, anti-CVA16, anti-EV71 BrCr and anti-EV71-C2 virus models of Vero cells (cell quantity: 1.5×10^4 cells per well) were established, respectively. […] An inhibition rate and a standard deviation were measured by an AlamarBlue test in three parallel tests.
# CVB3 = conditions: Coxsackievirus B type 3; CPE in vitro
# CVB1 [2] = test: Progeny virus yield of CVB1 in Vero cells (supernatant titrated by plaque reduction test); type: cell-based, Coxsackievirus B1 (CVB1); conditions: 0.02 MOI CVB1, Vero cells, 72 hours, FIG. 4c
# Procedure: After culture for 72 hours, a supernatant was titrated by a plaque reduction test, and results were obtained from three groups of parallel tests.
# [3] = system: enterovirus type 71 (BrCr/C4 subtype); test: Antiviral activity against enterovirus type 71 (CPE in vitro); type: cell-based
# Procedure: as §1
# CVB1 [4] = test: Time process test (administration time after infection); type: cell-based, Coxsackievirus B1 (CVB1); conditions: different administration times, FIG. 5
# [5] = system: Coxsackievirus A (6/10/16 subtype); test: Antiviral activity against Coxsackievirus A (CPE in vitro); type: cell-based
# Procedure: as §1
compound,measurement,setting,value
CN(C)CCC=C1c2ccccc2COc2ccccc21 [doxepin hydrochloride],antiviral activity (in words),CVB2,strong antiviral activity
same,CC50,Vero cytotoxicity test,90.7 ± 16.4 µM
same,antiviral activity (in words),CVB1 [1],strong antiviral activity
same,activity spectrum from inhibition rate (in words),Coxsackievirus B,broad-spectrum activity against Coxsackievirus B
same,antiviral activity (in words),CVB3,strong antiviral activity
same,progeny yield of CVB1 (in words),CVB1 [2],inhibited the progeny yield of CVB1
same,antiviral activity (in words),[3],does not have any antiviral activity
same,stage of infection cycle inhibited (in words),CVB1 [4],inhibits virus replication at an early stage of an infection cycle
same,antiviral activity (in words),[5],does not have any antiviral activity
